Results published in patent US12064445B2, “Cytarabine conjugates for cancer therapy” (Biosight Ltd., priority 2015, dated 2024).
pIC50: −log10 of the molar value.

Columns and labels:
[1] = system: CCRF-CEM cells; assay: Human leukemia hollow fiber model transplanted in nude mice (CCRF-CEM); type: in vivo; settings: 7 consecutive days
Description: (§1) Next, the efficacy of Astarabine® in vivo was studied on a human leukemia (Molt-4 and CCRF-CEM cells) hollow fiber model transplanted in nude mice. Astarabine® was injected at doses of 6.25 mg/mouse/day and 25 mg/mouse/day intraperitoneally (IP), daily, for 7 consecutive days; cytarabine was injected at a dose of 1.5 mg/mouse/day. Leukemia cell growth was measured using the MTT assay as described in Example 1 herein above.

[2] = in vivo; settings: IRC, mouse
Description: IRC mice were injected with Astarabine® IV daily for 14 days in a dosage ranging from 400 mg/kg/day to 1200 mg/kg/day. Based on the results of this 14 days intravenous repeated dose study in mice, it was concluded that the IV maximal tolerated dose for Astarabine® is 400 mg/kg/day, administrated for 14 consecutive days. The total administered dose in this group was 5600 mg/kg. All measured parameters such as clinical observations, neurobehavioral observations, motor activity observations, body weight, food consumption, blood analysis and urine analysis, were within the normal range as compared to the non-treated group. Thus, Astarabine® in a concentration of 400 mg/kg/day was considered as the NOAEL (No Adverse Effect Level) in mice. In vivo tolerability/toxicology studies to determine the MTD of a single dose in mice are shown in FIG. 1A and of repeated doses in mice are shown in FIG. 1B.

[3] = system: Molt-4 cells; assay: Human leukemia hollow fiber model transplanted in nude mice (Molt-4); type: in vivo; settings: 7 consecutive days
Description: as §1

[4] = system: AML and ALL patients; assay: Phase I/IIa open-label clinical study in AML and ALL patients; type: in vivo, human
Description: Phase I/IIa, open-label, uncontrolled, single-center study enrolled patients of 18 or more years of age with relapsed or refractory acute leukemia or those unfit for intensive therapy, as judged by the treating physician. The study was approved by the Rambam IRB (approval #0384-11).
Patients were enrolled into 4 Astarabine® escalating dose cohorts, each included 3 patients. Treatment was administered as a 1-hour single daily infusion for 6 consecutive days.
Astarabine® doses for each infusion: • For age ≤50 years: 0.5 g/m^2, 1.5 g/m^2, 3 g/m^2, 4.5 g/m^2 • For age >50 years: 0.3 g/m^2, 0.8 g/m^2, 1.5 g/m^2, 2.3 g/m^2 Results

[5] = Maximal tolerated dose, single dose IV in mice; type: in vivo
Description: IRC mice were injected once IV with Astarabine® in a dose ranging from 1000 to 8000 mg/kg. The mice were evaluated for 14 days. […] The following parameters: clinical signs, body weight, food consumption and blood analysis, were normal for both male and female mice at this dose, i.e., 8000 mg/kg. […] It is therefore concluded that 8000 mg/kg is the MTD of Astarabine® in mice for a single IV administration.

[6] = system: A2780 (Human ovarian carcinoma); assay: MTT assay, IC50 in tumor cell lines; type: cell-based; settings: A2780, 72 hr
Description: (§2) The effect of Astarabine® on different cell lines was evaluated. Briefly, various cell lines were obtained from ATCC or ECACC. Hematological cells were grown in RPMI medium containing 10-20% FBS and 1% glutamine. Solid tumor cells were grown in DMEM medium containing 10-20% FBS and 1% glutamine. Cells were seeded into 96-well plates, 50,000 cells/ml, 0.2 ml per well. Test substances were diluted in saline or PBS and added in final concentrations of 0.1 nM to 10 μM, in a volume of 20 μl. The study was conducted in triplicates, PBS was used as control. Plates were incubated for 72 hr at 37° C., 5% CO2. At the end of the exposure period, a MTT assay using the MTT reagent [3-(4,5-dimethylthiazol-2-yl)-2,5-diphenyltetrazolium bromide] was performed. MTT was added to each well at a concentration of 5 mg/ml in a volume of 0.02 ml. Plates were incubated at 37° C. for 3 h. The plates were centrifuged at 3500 rpm for 5 minutes and the supernatant was aspired. The pellets which contained MTT crystals were each dissolved in 0.2 ml DMSO. Absorbance was determined using ELISA reader at a wavelength of 570 nm.

[7] = system: NCIH727 (Human lung non small cell carcinoma); assay: MTT assay, IC50 in tumor cell lines; type: cell-based; settings: NCI-H727, NCIH727, 72 hr
Description: as §2

[8] = system: RS 4:11 (Human acute lymphoblastic leukemia); assay: MTT assay, IC50 in tumor cell lines; type: cell-based; settings: RS4-11, RS 4:11, 72 hr
Description: as §2

[9] = system: Kasumi-1 (Human acute myeloblastic leukemia); assay: MTT assay, IC50 in tumor cell lines; type: cell-based; settings: Kasumi-1, 72 hr
Description: as §2

[10] = system: CCRF-CEM (Human acute lymphoblastic leukemia T lympoblastoid line); assay: MTT assay, IC50 in tumor cell lines; type: cell-based; settings: 72 hr
Description: as §2

[11] = system: SU DHL-1 (Human large cell lymphoma); assay: MTT assay, IC50 in tumor cell lines; type: cell-based; settings: SU DHL-1, 72 hr
Description: as §2

[12] = patient 1, Refractory AML, 0.3 gr/m^2/day
[13] = patient 2, Refractory AML, 0.3 gr/m^2/day
[14] = patient 3, Refractory AML, 0.5 gr/m^2/day
[15] = patient 4, Secondary AML, 0.8 gr/m^2/day
[16] = patient 5, Secondary AML, 0.8 gr/m^2/day
[17] = patient 6, Refractory AML, 0.8 gr/m^2/day
[18] = patient 8, Secondary AML, 1.5 gr/m^2/day
[19] = patient 9, Secondary AML, 1.5 gr/m^2/day
[20] = patient 10, Relapsed AML, 2.3 gr/m^2/day

N[C@@H](CC(=O)Nc1ccn([C@@H]2O[C@H](CO)[C@@H](O)[C@@H]2O)c(=O)n1)C(=O)O [Astarabine®]
Inhibition of growth of CCRF-CEM cells ([1]; 6.25 mg/mouse/day IP): 71.9% | Inhibition of growth of CCRF-CEM cells ([1]; 25 mg/mouse/day IP): 72.0% | IV maximal tolerated dose ([2]; 14 days): 400 mg/kg/day | NOAEL at 14 days ([2]; iv): 400 mg/kg/day | MTD at 14 days ([2]; iv, 400 mg/kg/day): 5600 mg/kg | Inhibition of growth of Molt-4 cells ([3]; 6.25 mg/mouse/day IP): 76.9% | Inhibition of growth of Molt-4 cells ([3]; 25 mg/mouse/day IP): 82.8% | Adverse effects during or post therapy ([4]; 10 patients, 0.3-2.3 g/m^2/day, 1-hour daily infusion for 6 days, apart from neutropenic fever): No significant adverse effects | Safety and tolerability ([4]; even for patients of 80 or more years of age): safe and very well tolerated | Follow-up in months [4, 12]: 3 months | BM blasts Day 0 ([4]; patient 1, Refractory AML, 0.3 gr/m^2/day x 6 days infusion): 100% | BM blasts Day 14 [4, 12]: 90% | BM blasts Day 30 [4, 12]: 83% | Follow-up in months [4, 13]: 2 months | BM blasts Day 0 [4, 13]: 100% | BM blasts Day 14 [4, 13]: 64% | BM blasts Day 30 [4, 13]: 70% | Follow-up in months [4, 14]: 6 months | BM blasts Day 0 [4, 14]: 90% | BM blasts Day 14 [4, 14]: 37% | BM blasts Day 30 [4, 14]: 60% | Follow-up in months [4, 15]: 4 months | BM blasts Day 14 [4, 15]: 39% | BM blasts Day 30 [4, 15]: 63% | Follow-up in months [4, 16]: 9 months | BM blasts Day 0 [4, 16]: 80% | BM blasts Day 14 [4, 16]: 5% | BM blasts Day 30 [4, 16]: 0% | Follow-up in months [4, 17]: 1 months | BM blasts Day 0 [4, 17]: 85% | BM blasts Day 14 [4, 17]: 100% | BM blasts Day 30 [4, 17]: 100% | Follow-up in months ([4]; patient 7, ALL, 1.5 gr/m^2/day): 7 months | BM blasts Day 0 ([4]; patient 7, ALL, 1.5 gr/m^2/day): 89% | BM blasts Day 14 ([4]; patient 7, ALL, 1.5 gr/m^2/day): 3% | BM blasts Day 30 ([4]; patient 7, ALL, 1.5 gr/m^2/day): 0.2% | Follow-up in months [4, 18]: 6 months | BM blasts Day 0 [4, 18]: 63% | BM blasts Day 14 [4, 18]: 80% | BM blasts Day 30 [4, 18]: 8% | Follow-up in months [4, 19]: 1 months | Outcome [4, 19]: Died | BM blasts Day 0 [4, 19]: 100% | Follow-up in months [4, 20]: 1 months | Outcome [4, 20]: Died | BM blasts Day 0 [4, 20]: 100% | Remission ([4]; patients having acute leukemia, 0.3-2.3 g/m^2/day for 6 days): three out of ten patients | Safety and tolerability ([4]; patients of 75 or more years of age having AML or ALL, daily dose of about 2 g/m^2 or higher): safe and well tolerated | MTD at 14 days ([5]; both sexes, IRC, mouse, in vivo, single IV administration, evaluated for 14 days): 8000 mg/kg | Drug dependent death ([5]; single IV dose 8000 mg/kg): no drug dependent death | pIC50 [6]: 6.34 | pIC50 [7]: 5.55 to 5.89 | pIC50 [8]: 7.57 | pIC50 [9]: 5.12 | pIC50 [10]: 7.39 to 7.63 | pIC50 [11]: 6.47 to 6.50
